In US10414775B2 (Merck Sharp & Dohme Corp., priority 2016, dated 2019):

These compounds were tested against T1, Human CYP8B1 (Homo sapiens, UniProt Q9UNU6) (assay: Human Cyp8B1 Liver Microsome Assay). Conditions: human liver microsomes; substrate 7α-hydroxy-4-cholesten-3-one, NADPH; 30 min pre-incubation, 45 min reaction; RapidFire MS readout.
T1 construct: tissue Xenotech; host or cells: human liver microsomes
T1 sequence (Q9UNU6 1-501): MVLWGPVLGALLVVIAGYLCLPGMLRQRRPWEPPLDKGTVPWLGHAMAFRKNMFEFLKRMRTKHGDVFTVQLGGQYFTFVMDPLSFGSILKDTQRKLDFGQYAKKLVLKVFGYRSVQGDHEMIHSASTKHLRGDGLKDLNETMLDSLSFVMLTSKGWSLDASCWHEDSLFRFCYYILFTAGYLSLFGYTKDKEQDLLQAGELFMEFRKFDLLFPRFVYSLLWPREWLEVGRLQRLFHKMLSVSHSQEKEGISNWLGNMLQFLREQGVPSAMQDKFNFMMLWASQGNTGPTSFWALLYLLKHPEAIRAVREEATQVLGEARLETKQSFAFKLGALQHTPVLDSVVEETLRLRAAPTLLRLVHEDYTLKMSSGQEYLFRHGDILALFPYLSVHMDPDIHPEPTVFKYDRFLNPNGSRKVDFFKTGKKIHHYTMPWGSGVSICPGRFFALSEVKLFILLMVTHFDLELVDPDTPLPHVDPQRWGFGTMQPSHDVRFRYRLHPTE
Assay type: biochemical
Outline: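 Human liver microsomes (65 μg/ml, 0.1 M phosphate pH 7.4) preincubated 30 min at room temperature with inhibitor (1.25% DMSO final), then reacted 45 min with 7α-hydroxy-4-cholesten-3-one and NADPH. 7α,12α-dihydroxy product quantified by RapidFire ESI+ MRM against d7 internal standard; IC50 from four-parameter logistic fit.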

SMILES	IC50
Cc1cnc2cc(C(C)(F)F)ccc2c1N1CC[C@H](C(=O)N2CCn3c(nnc3C(F)(F)F)C2)[C@H](C)C1 [Example 52, {(3S,4S)-1-[7-(1,1-difluoroethyl)-3-methylquinolin-4-yl]-3-methylpiperidin-4-yl}[3-(trifluoromethyl)-5,6-dihydro[1,2,4]triazolo[4,3-a]pyrazin-7(8H)-yl]methanone]	0.31 nM
C[C@@H]1CN(c2ccnc3cc(OCC4CC4)ccc23)CC[C@@H]1C(=O)N1CCn2c(nnc2C(F)(F)F)C1 [Example 53, {(3S,4S)-1-[7-(cyclopropylmethoxy)quinolin-4-yl]-3-methylpiperidin-4-yl}[3-(trifluoromethyl)-5,6-dihydro[1,2,4]triazolo[4,3-a]pyrazin-7(8H)-yl]methanone]	3.6 nM
C[C@@H]1CN(c2c(C(F)F)cnc3cc(C4CC4)ccc23)CC[C@@H]1C(=O)N1CCn2c(nnc2C(F)(F)F)C1 [Example 54, {(3S,4S)-1-[7-cyclopropyl-3-(difluoromethyl)quinolin-4-yl]-3-methylpiperidin-4-yl}[3-(trifluoromethyl)-5,6-dihydro[1,2,4]triazolo[4,3-a]pyrazin-7(81H)-yl]methanone]	0.61 nM
C[C@@H]1CN(c2c(Cl)cnc3cc(C(F)(F)F)ccc23)CC[C@@H]1C(=O)N1CCn2c(nnc2C(F)(F)F)C1 [Example 55, ((3S,4S)-1-(3-chloro-7-(trifluoromethyl)quinolin-4-yl)-3-methylpiperidin-4-yl)(3-(trifluoromethyl)-5,6-dihydro-[1,2,4]triazolo[4,3-a]pyrazin-7(8H)-yl)methanone]	0.2 nM
C[C@@H]1CN(c2c(F)cnc3cc(C(F)F)ccc23)CC[C@@H]1C(=O)N1CCn2c(nnc2C(F)(F)F)C1 [Example 56, ((3S,4S)-1-(7-(difluoromethyl)-3-fluoroquinolin-4-yl)-3-methylpiperidin-4-yl)(3-(trifluoromethyl)-5,6-dihydro-[1,2,4]triazolo[4,3-a]pyrazin-7(8H)-yl)methanone]	0.46 nM
C[C@@H]1CC(c2c(Cl)cnc3cc(C(F)F)ccc23)CCN1C(=O)N1CCn2c(nnc2C(F)(F)F)C1 (stereo partly drawn) [Example 57, ((2R)-4-(3-chloro-7-(difluoromethyl)quinolin-4-yl)-2-methylpiperidin-1-yl)(3-(trifluoromethyl)-5,6-dihydro-[1,2,4]triazolo [4,3-a]pyrazin-7(8H)-yl)methanone]	0.32 nM
C[C@@H]1CN(c2ccnc3cc(C(F)F)ccc23)CC[C@@H]1C(=O)N1CCn2c(nnc2C(F)(F)F)C1 [Example 58, ((3S,4S)-1-(7-(difluoromethyl)quinolin-4-yl)-3-methylpiperidin-4-yl)(3-(trifluoromethyl)-5,6-dihydro-[1,2,4]triazolo[4,3-a]pyrazin-7(8H)-yl)methanone]	5.97 nM
C[C@@H]1CN(c2ccnc3c2CCN(C(=O)OC(C)(C)C)C3)CC[C@@H]1C(=O)N1CCn2c(nnc2C(F)(F)F)C1 [Example 59, tert-butyl 4-((3S,4S)-3-methyl-4-(3-(trifluoromethyl)-5,6,7,8-tetrahydro-[1,2,4]triazolo[4,3-a]pyrazine-7-carbonyl)piperidin-1-yl)-5,6-dihydro-1,7-naphthyridine-7(8H)-carboxylate]	8.2 nM
C[C@@H]1CN(c2c(Cl)cnc3c2CCN(CC(F)(F)F)C3)CC[C@@H]1C(=O)N1CCn2c(nnc2C(F)(F)F)C1 [Example 60, ((3S,4S)-1-(3-chloro-7-(2,2,2-trifluoroethyl)-5,6,7,8-tetrahydro-1,7-naphthyridin-4-yl)-3-methylpiperidin-4-yl)(3-(trifluoromethyl)-5,6-dihydro-[1,2,4]triazolo[4,3-a]pyrazin-7(8H)-yl)methanone]	0.8 nM
C[C@@H]1CN(c2c(Cl)cnc3c2CCN(CC2CC2)C3)CC[C@@H]1C(=O)N1CCn2c(nnc2C(F)(F)F)C1 [Example 61, ((3S,4S)-1-(3-chloro-7-(cyclopropylmethyl)-5,6,7,8-tetrahydro-1,7-naphthyridin-4-yl)-3-methylpiperidin-4-yl)(3-(trifluoromethyl)-5,6-dihydro-[1,2,4]triazolo[4,3-a]pyrazin-7(8H)-yl)methanone]	1 nM
C[C@@H]1CN(c2c(Cl)cnc3c2CCN(c2ccccn2)C3)CC[C@@H]1C(=O)N1CCn2c(nnc2C(F)(F)F)C1 [Example 62, ((3S,4S)-1-(3-chloro-7-(pyridin-2-yl)-5,6,7,8-tetrahydro-1,7-naphthyridin-4-yl)-3-methylpiperidin-4-yl)(3-(trifluoromethyl)-5,6-dihydro-[1,2,4]triazolo[4,3-a]pyrazin-7(8H)-yl)methanone]	0.4 nM
C[C@@H]1CN(c2ccnc3c2CCN(CC(F)(F)F)C3)CC[C@@H]1C(=O)N1CCn2c(nnc2C(F)(F)F)C1 [Example 63, ((3S,4S)-3-methyl-1-(7-(2,2,2-trifluoroethyl)-5,6,7,8-tetrahydro-1,7-naphthyridin-4-yl)piperidin-4-yl)(3-(trifluoromethyl)-5,6-dihydro-[1,2,4]triazolo[4,3-a]pyrazin-7(8H)-yl)methanone]	120 nM
C[C@@H]1CN(c2ccnc3c2CCN(C(=O)OC2(C)CC2)C3)CC[C@@H]1C(=O)N1CCn2c(nnc2C(F)(F)F)C1 [Example 64, 1-methylcyclopropyl 4-((3 S,4S)-3-methyl-4-(3-(trifluoromethyl)-5,6,7,8-tetrahydro-[1,2,4]triazolo[4,3-a]pyrazine-7-carbonyl)piperidin-1-yl)-5,6-dihydro-1,7-naphthyridine-7(8H)-carboxylate]	49 nM
C[C@@H]1CN(c2c(Cl)cnc3c2CCN(C(=O)C2CC2)C3)CC[C@@H]1C(=O)N1CCn2c(nnc2C(F)(F)F)C1 [Example 65, (3-chloro-4-((3S,4S)-3-methyl-4-(3-(trifluoromethyl)-5,6,7,8-tetrahydro-[1,2,4]triazolo[4,3-a]pyrazine-7-carbonyl)piperidin-1-yl)-5,6-dihydro-1,7-naphthyridin-7(8H)-yl)(cyclopropyl)methanone]	1.75 nM
CC(C)NC(=O)c1ccc2c(N3CC[C@H](C(=O)N4CCn5c(nnc5C(F)(F)F)C4)[C@H](C)C3)ccnc2c1 [Example 66, N-isopropyl-4-((3 S,4S)-3-methyl-4-(3-(trifluoromethyl)-5,6,7,8-tetrahydro-[1,2,4]triazolo[4,3-a]pyrazine-7-carbonyl)piperidin-1-yl)quinoline-7-carboxamide]	4.5 nM
C[C@@H]1CN(c2ccnc3cc(C(=O)NCC4CC4)ccc23)CC[C@@H]1C(=O)N1CCn2c(nnc2C(F)(F)F)C1 [Example 67, N-(cyclopropylmethyl)-4-((3 S,4S)-3-methyl-4-(3-(trifluoromethyl)-5,6,7,8-tetrahydro-[1,2,4]triazolo[4,3-a]pyrazine-7-carbonyl)piperidin-1-yl)quinoline-7-carboxamide]	23.6 nM
C[C@@H]1CN(c2ccnc3cc(C(=O)NC45CC(C4)C5)ccc23)CC[C@@H]1C(=O)N1CCn2c(nnc2C(F)(F)F)C1 [Example 68, N-(bicyclo[1.1.1]pentan-1-yl)-4-((3S,4S)-3-methyl-4-(3-(trifluoromethyl)-5,6,7,8-tetrahydro-[1,2,4]triazolo [4,3-a]pyrazine-7-carbonyl)piperidin-1-yl) quinoline-7-carboxamide]	21.1 nM
CCNC(=O)c1ccc2c(N3CC[C@H](C(=O)N4CCn5c(nnc5C(F)(F)F)C4)[C@H](C)C3)ccnc2c1 [Example 69, N-ethyl-4-((3S,4S)-3-methyl-4-(3-(trifluoromethyl)-5,6,7,8-tetrahydro-[1,2,4]triazolo [4,3-a]pyrazine-7-carbonyl)piperidin-1-yl) quinoline-7-carboxamide]	368 nM
CCNC(=O)c1ccc2c(N3CC[C@H](C(=O)N4CCn5c(nnc5C(F)(F)F)C4)[C@H](C)C3)c(Cl)cnc2c1 [Example 70, 3-chloro-N-ethyl-4-((3 S,4S)-3-methyl-4-(3-(trifluoromethyl)-5,6,7,8-tetrahydro-[1,2,4]triazolo[4,3-a]pyrazine-7-carbonyl)piperidin-1-yl)quinoline-7-carboxamide]	0.7 nM
C[C@@H]1CN(c2ccnc3cc(S(C)(=O)=O)ccc23)CC[C@@H]1C(=O)N1CCn2c(nnc2C(F)(F)F)C1 [Example 71, ((3 S,4S)-3-methyl-1-(7-(methylsulfonyl)quinolin-4-yl)piperidin-4-yl)(3-(trifluoromethyl)-5,6-dihydro-[1,2,4]triazolo[4,3-a]pyrazin-7(8H)-yl)methanone]	305 nM
C[C@@H]1CN(c2c(Cl)cnc3cc(S(C)(=O)=O)ccc23)CC[C@@H]1C(=O)N1CCn2c(nnc2C(F)(F)F)C1 [Example 72, ((3S,4S)-1-(3-chloro-7-(methylsulfonyl)quinolin-4-yl)-3-methylpiperidin-4-yl)(3-(trifluoromethyl)-5,6-dihydro-[1,2,4]triazolo[4,3-a]pyrazin-7(8H)-yl)methanone]	1.2 nM
C[C@@H]1CN(c2ccnc3cc(-c4ncco4)ccc23)CC[C@@H]1C(=O)N1CCn2c(nnc2C(F)(F)F)C1 [Example 73, ((3S,4S)-3-methyl-1-(7-(oxazol-2-yl)quinolin-4-yl)piperidin-4-yl)(3-(trifluoromethyl)-5,6-dihydro-[1,2,4]triazolo[4,3-a]pyrazin-7(8H)-yl)methanone]	0.4 nM
